Test results: publication PMC11650735, “Challenging Reported Frizzled-Targeting Compounds in Selective Assays Reveals Lack of Functional Inhibition and Claimed Profiles” (ACS Pharmacology & Translational Science, 2024)
Entries after “also recorded” stand apart in the source; their conditions may differ. Where two headings read alike, the source gives them in different places.

Columns and labels:
[1] = system: Wnt3a-stimulated Wnt pathway activation; test: TopFlash assay in reporter wild-type HEK293T line, Wnt3a-stimulated; assay type: cell-based, human; settings: for IC50: Homo sapiens, HEK-293T, Wnt3a
[2] = system: individually reexpressed FZDs (1,2,4,5,7,8, and 10); test: TopFlash in ΔFZD1–10 HEK293T, panel of individually reexpressed FZDs, Wnt3a-stimulated (collective statements)
ΔFZD1–10 HEK293T cells = settings: for toxicity / general transcriptional inhibition by Renilla signal, in words: Renilla luciferase
HEK293T cells [3] = test: Renilla luciferase (pRL-CMV) toxicity/general transcription readout in wild-type reporter HEK293T; settings: for IC50: Homo sapiens, HEK-293T, read-out: IC50 (Renilla)
[4] = system: CHIR99021-stimulated Wnt pathway activation; test: TopFlash assay in reporter wild-type HEK293T line, CHIR99021-stimulated; assay type: cell-based, human; settings: for inhibition of CHIR99021-stimulated response compared with Wnt3a-stimulated, in words: wild-type reporter HEK293T, TopFlash
[5] = system: CHIR99021-induced Wnt pathway activation (FZD-independent); test: TopFlash in ΔFZD1–10 HEK293T without FZD (pcDNA), CHIR99021-stimulated
[6] = system: Wnt signaling in TopFlash-transfected 3T3 cells; set-up: method as in PMID 26504084; settings: read-out: potency; cited from earlier work
[7] = system: Wnt3a/FZD7-mediated cytoplasmic β-catenin accumulation; test: Western blot of FZD7-dependent cytoplasmic β-catenin accumulation in ΔFZD1–10 HEK293T; assay type: cell-based, human; settings: 10 μM, FZD7-transfected ΔFZD1–10 HEK293T
Procedure: In 24-well plates, a ΔFZD1–10 HEK293T cell line was reinfected with a baculovirus expressing FZD7 or a control baculovirus at a density of 100,000 cells/well. The new medium containing the 10 μM F7H-28 derivative and the indicated Wnt activators (500 ng/mL Wnt3a or 1 μM CHIR99021) was added and incubated until the next day. The medium was then removed, and 500 μL of 1× PBS was used twice for washing. After adding 30 μL of ice-cold 1× TBS supplemented with 4 mM EDTA and 1× protease inhibitor cocktail, the cells were lysed by scraping and passed through an insulin 30G needle 10 times. The samples were centrifuged at 18,000g and 4 °C for 10 min to remove debris. Western blot was performed on 15 μL of each supernatant and developed using antibodies against α-tubulin and β-catenin.

firefly luciferase = firefly luciferase (Photinus pyralis, UniProt P08659); test: Compound added to prestimulated TopFlash cells immediately prior to lysis and measurement; settings: compound added directly before cell lysis
FZD7 [8] = molecular target: T1, FZD7 (Homo sapiens, UniProt O75084); test: TopFlash in ΔFZD1–10 HEK293T with reexpressed FZD7, Wnt3a-stimulated; settings: FZD7 reexpression, firefly TopFlash
FZD7 [9] = molecular target: T1, FZD7; test: NanoLuc-substituted TopFlash reporter in ΔFZD1–10 HEK293T cotransfected with FZD7, Wnt3a
FZD7 [10] = system: FZD7; set-up: method as in PMID 37669317; settings: cited from earlier work
FZD7 [11] = molecular target: T1, FZD7; test: cell-based
FZD4 = molecular target: T2, FZD4 (Mus musculus, UniProt Q61088); test: TopFlash in ΔFZD1–10 HEK293T with reexpressed FZD4, Wnt3a-stimulated; settings: ΔFZD1–10 HEK293T + FZD4, Wnt3a, up to 50 μM
T2 sequence (Q61088 37-537): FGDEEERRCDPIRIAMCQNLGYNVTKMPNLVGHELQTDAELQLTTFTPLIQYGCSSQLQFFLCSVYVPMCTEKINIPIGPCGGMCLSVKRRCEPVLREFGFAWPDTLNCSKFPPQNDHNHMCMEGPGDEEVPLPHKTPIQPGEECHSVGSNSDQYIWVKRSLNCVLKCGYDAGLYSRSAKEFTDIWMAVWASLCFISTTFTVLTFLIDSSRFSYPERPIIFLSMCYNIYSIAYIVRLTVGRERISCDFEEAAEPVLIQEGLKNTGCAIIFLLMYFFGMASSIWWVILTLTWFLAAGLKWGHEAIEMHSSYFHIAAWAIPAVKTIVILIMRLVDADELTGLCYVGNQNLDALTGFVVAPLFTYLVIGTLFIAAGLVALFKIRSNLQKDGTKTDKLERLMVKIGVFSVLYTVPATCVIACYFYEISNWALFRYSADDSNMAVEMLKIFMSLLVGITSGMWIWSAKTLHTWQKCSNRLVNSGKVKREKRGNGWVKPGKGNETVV

FZD7 [12] = system: FZD7; set-up: method as in PMID 29207657; settings: claimed FZD7 inhibition; cited from earlier work
mouse FZD8 = system: mouse FZD8; set-up: method as in PMID 32049522; settings: HEK293T FZD1,2,7 knockout + mouse FZD8; cited from earlier work
HEK293T cells [13] = system: HEK293T cells
[14] = read-out: IC50 / potency, ΔFZD1–10 HEK293T without FZD, CHIR99021

Sequence of firefly luciferase (P08659 whole entry): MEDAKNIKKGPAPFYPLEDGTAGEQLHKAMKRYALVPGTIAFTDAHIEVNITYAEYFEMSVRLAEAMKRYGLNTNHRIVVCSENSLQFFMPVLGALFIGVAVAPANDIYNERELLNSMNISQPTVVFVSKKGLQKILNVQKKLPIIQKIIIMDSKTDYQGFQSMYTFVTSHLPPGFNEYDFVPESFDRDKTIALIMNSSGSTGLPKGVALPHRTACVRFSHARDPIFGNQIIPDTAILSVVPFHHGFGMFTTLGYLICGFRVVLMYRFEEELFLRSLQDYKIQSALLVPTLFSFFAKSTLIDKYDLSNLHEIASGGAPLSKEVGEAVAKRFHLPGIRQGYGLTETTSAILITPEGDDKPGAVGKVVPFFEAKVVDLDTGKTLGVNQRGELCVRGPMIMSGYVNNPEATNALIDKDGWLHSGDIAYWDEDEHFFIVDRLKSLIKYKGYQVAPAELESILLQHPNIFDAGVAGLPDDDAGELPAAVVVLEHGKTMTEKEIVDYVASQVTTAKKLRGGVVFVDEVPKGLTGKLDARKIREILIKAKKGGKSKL

COc1ccc(C(=O)Nc2ccccc2C(=O)NC(C(=O)NNC(=O)COc2ccccc2)C(C)C)cc1 (centres unmarked) [3235-0367]
IC50 ([1]; wild-type reporter HEK293T, TopFlash): ~8 µM
selectivity among FZDs, in words ([2]; individual FZDs including FZD8): no significant selectivity
IC50 (ΔFZD1–10 HEK293T cells; read-out: IC50 (Renilla), Renilla luciferase signal): > 50 µM
IC50 (HEK293T cells [3]): > 50 µM
inhibition of CHIR99021-stimulated response compared with Wnt3a-stimulated, in words [4]: overlapping inhibition curve
IC50 [5, 14]: ~20 µM
IC50 [6]: 7.1 µM

O=C(CSc1ccc(NC(=O)c2ccc(F)cc2)cc1)Nc1nc(-c2ccccc2)cs1 [F7H-28]
IC50 (HEK293T cells [3]): > 2 µM
effect on cytoplasmic β-catenin signal (Western blot), in words [7]: does not reduce this signal
direct effect on firefly luciferase, in words (firefly luciferase): inhibits the firefly luciferase enzymatic activity
potency compared with CHIR99021-stimulated cells, in words (FZD7 [8]): same potency
effect on NanoLuc Wnt reporter, in words (FZD7 [9]): does not report significant changes
IC50 (FZD7 [10]): 0.04 µM
IC50 (FZD7 [11]): > 50 µM

CSCC[C@H](NC(=O)[C@@H](NC(=O)[C@H](Cc1c[nH]cn1)NC(=O)[C@H](CS)NC(=O)[C@H](Cc1c[nH]c2ccccc12)NC(=O)[C@H](Cc1ccccc1)NC(=O)[C@H](CCC(=O)O)NC(=O)[C@H](CC(C)C)NC(=O)[C@H](CC(=O)O)NC(=O)[C@H](CC(=O)O)NC(=O)[C@H](CO)NC(=O)[C@@H]1CCCN1C(=O)[C@@H](N)CC(C)C)C(C)C)C(=O)N[C@@H](Cc1ccc(O)cc1)C(=O)O [Fz7–21, LPSDDLEFWCHVMY]
toxicity / general transcriptional inhibition by Renilla signal, in words (ΔFZD1–10 HEK293T cells): no unspecific toxicity

O=C(Nc1cc(O)cc(-c2cccs2)c1)Nc1ccc2ccccc2c1 [FzM1]
activity against Wnt signaling, in words ([1]; wild-type HEK293T, up to 50 μM): no detectable activity; also recorded: no statistically discernible effect
activity against Wnt signaling, in words ([2]; any of the FZDs in ΔFZD1–10 HEK293T, Wnt3a, up to 50 μM): no detectable activity; also recorded: no statistically discernible effect
effect on FZD4-dependent Wnt3a signaling, in words (FZD4): no statistically discernible effect

O=C(/C=C/c1ccc2c(c1)OCO2)Nc1ccc(-n2cnc3ccccc32)cc1 [SRI35959]
toxicity / general transcriptional inhibition by Renilla signal, in words (ΔFZD1–10 HEK293T cells): some toxicity
toxicity by effect on Renilla luciferase, in words (HEK293T cells [3]; wild-type reporter HEK293T, Renilla luciferase): some toxicity
inhibition of CHIR99021-stimulated response compared with Wnt3a-stimulated, in words [4]: slightly (but significantly) better
IC50 [5, 14]: 10 µM
IC50 (FZD7 [12]): ~3 µM

NC(=O)N1c2ccccc2C=Cc2ccccc21 [carbamazepine]
inhibition of Wnt3a-induced signal, in words (mouse FZD8): partially inhibited
toxicity / general transcriptional inhibition by Renilla signal, in words (ΔFZD1–10 HEK293T cells): some toxicity
inhibition of CHIR99021-stimulated response compared with Wnt3a-stimulated, in words [4]: slightly (but significantly) better
IC50 [5, 14]: ~50 µM
toxicity by effect on Renilla luciferase, in words (HEK293T cells [13]): some toxicity

O=C(Nc1ccc([N+](=O)[O-])cc1Cl)c1cc(Cl)ccc1O [niclosamide]
IC50 ([1]; wild-type HEK293T reporter line): 0.1 µM
IC50 ([2]; all individually reexpressed FZDs, Wnt3a): 0.1 µM
IC50 ([4]; Homo sapiens, HEK-293T, wild-type HEK293T reporter line): 0.1 µM
IC50 ([5]; CHIR99021 in cells deprived of any FZD protein): 0.1 µM
